Measurements as given in PMC8955020, “Pharmacokinetics of Nafamostat, a Potent Serine Protease Inhibitor, by a Novel LC-MS/MS Analysis” (Molecules, 2022).
Read-outs that look alike come from different tables or passages of the source.

Tests used:
[1] = Pharmacokinetics of nafamostat in rats after intravenous injection and oral administration (LC-MS/MS, non-compartmental); assay type: in vivo; details: rat
Experimental: Therefore, nafamostat dissolved in 5% DMSO was administered by intravenous injection via penile vein at a dose of 2 mg/kg (n = 5). For oral administration, nafamostat was dissolved in two types of vehicles: (1) 10% DMSO, (2) 10% DMSO with 10% Tween 80, and orally administered at a dose of 20 mg/kg (n = 5). […] The animal study was approved by the Ethics Committee for the Treatment of Laboratory Animals at Sungkyunkwan University (SKKUIACUC2021-01-57-1) and conducted in accordance with the standard operating procedures (SOPs). Male Sprague–Dawley rats (7 weeks, 188–204 g; DBL, Eumseong, Korea) were kept in plastic cages with free access to a standard diet (Cargill Agri Purina, Seongnam, Korea) and water. The animals were maintained at a temperature of 23 ± 2 °C with a 12 h light–dark cycle and relative humidity of 50 ± 10%. Nafamostat dissolved in 5% DMSO (1 mg/mL) was administered by intravenous injection via penile vein at a dose of 2 mg/kg (n = 5). Approximately 0.3 mL of the venous blood samples were collected at 5, 10, 15, 30 min, 1, 1.5, 2, 3, 4, 6, 8, and 12 h after drug administration directly from the jugular vein. For oral administration, nafamostat was dissolved in two types of vehicle: (1) 10% DMSO, (2) 10% DMSO with 10% Tween 80. The prepared nafamostat solution in Vehicle 1 or Vehicle 2 was orally administered at a dose of 20 mg/kg (n = 5). Approximately 0.3 mL of the venous blood samples were collected at 15, 30, 45 min, 1, 1.5, 2, 3, 4, 6, 8, and 12 h after drug administration directly from the jugular vein. Plasma samples were obtained by centrifugation of the blood samples at 15,000× g for 5 min. Finally, 150 μL of the plasma samples were mixed with 3 μL of the 5.5 mol/L HCl and stored at −20 °C until analysis. The plasma nafamostat concentration–time data were analyzed by a non-compartmental method using the nonlinear least-squares regression program, Phoenix WinNonlin (Version 6.4, Certara, L.P., Princeton, NJ, USA).

[2] = Effect of pH on stability of nafamostat in plasma under different storage conditions; assay type: in vitro ADME, rat; details: 160 ng/mL in plasma
Experimental: Nafamostat in the biological fluid is highly unstable because it is rapidly hydrolyzed by erythrocytes in the blood, as well as by arylesterase in the plasma. Quick plasma preparation is one of the general stabilization strategies for unstable compounds in the biological matrices. Therefore, to prevent the hydrolysis of nafamostat by erythrocytes after acquiring the blood samples, the centrifugation time of the blood samples was shortened from 10 to 5 min. In addition, the stability of nafamostat was examined by modulating the pH of plasma samples to determine the optimal pH to minimize the enzymatic hydrolysis. […] Nafamostat concentrations were also determined under various storage conditions, i.e., (A) immediately, (B) after 24 h left at room temperature, (C) after being subjected to five freeze–thaw cycles, and (D) after 10 days at −20 °C. […] Accordingly, once plasma samples were collected, 3 µL of 5.5 mol/L HCl was added to 150 µL of the collected plasma samples to keep the plasma samples in 0.35% HCl (pH = 1.2).

[3] = Stability of nafamostat in rat plasma (autosampler, freeze/thaw, short-term, long-term); assay type: in vitro ADME; details: for Percentage over Theoretical Concentration, Long-Term Stability: 2 weeks; for Percentage over Theoretical Concentration, Freeze/Thaw Stability: 5 cycles; for Percentage over Theoretical Concentration, Autosampler Stability / Percentage over Theoretical Concentration, Short-Term Stability: 24 h; for Percentage over Theoretical Concentration, Autosampler Stability: 4 °C; for Percentage over Theoretical Concentration, Short-Term Stability: 20 °C
Experimental: The stability of the nafamostat in the rat plasma was determined under four different storage conditions. […] The stability of nafamostat and IS was examined under four different conditions using three replicates of low, medium, and high QC samples in the rat plasma. The autosampler stability was determined by analyzing the QC samples left in the autosampler at 4 °C for 24 h. The freeze–thaw stability was determined by analyzing the QC samples subject to five freeze–thaw cycles. The short-term stability was determined by analyzing the QC samples left at room temperature for 24 h. […] All stability data were expressed as the percentage of the mean response of the QC samples for stability tests vs. those of the freshly prepared samples at the same concentrations.

[4] = parameters: method as in PMID 18392693; details: humans; cited from earlier work
[5] = male, Sprague-Dawley, plasma, iv, 2 mg/kg, IV injection 2 mg/kg in 5% DMSO
[6] = male, Sprague-Dawley, plasma, po, 20 mg/kg, oral 20 mg/kg, vehicle 1: 10% DMSO
[7] = male, Sprague-Dawley, plasma, po, 20 mg/kg, oral 20 mg/kg, vehicle 2: 10% DMSO + 10% Tween 80
[8] = IV injection 2 mg/kg in 5% DMSO

N=C(N)c1ccc2cc(OC(=O)c3ccc(N=C(N)N)cc3)ccc2c1 [nafamostat, 6′-amidino-2-naphthyl 4-guanidinobenzoate]
Vd ([1]; male, Sprague-Dawley, plasma, IV injection 2 mg/kg in 5% DMSO, read-out: Vss): 0.99 ± 0.65 L/kg
CL/F ([1]; male, Sprague-Dawley, plasma, oral 20 mg/kg, vehicle 2: 10% DMSO + 10% Tween 80, read-out: CL or CL/F): 5320 ± 1990 mL/min/kg
AUC(0-inf) [1, 5]: 447 ± 35.9 ng·h/mL
half-life [1, 5]: 83.4 min
Cmax ([1]; male, Sprague-Dawley, plasma, iv, 2 mg/kg, IV injection 2 mg/kg in 5% DMSO, plasma, read-out: C0 or Cmax): 5290 ± 808 ng/mL
AUC(0-inf) [1, 6]: 42.4 ± 12.5 ng·h/mL
Tmax [1, 6]: 27 ± 12.6 min
bioavailability [1, 6]: 0.95 ± 0.25%
half-life [1, 6]: 133 ± 78 min
Cmax ([1]; male, Sprague-Dawley, plasma, po, 20 mg/kg, oral 20 mg/kg, vehicle 1: 10% DMSO, read-out: C0 or Cmax): 27.8 ± 8.17 ng/mL
AUC(0-inf) [1, 7]: 71.2 ± 29.9 ng·h/mL
Tmax [1, 7]: 60 ± 31.8 min
bioavailability [1, 7]: 1.59 ± 0.6%
half-life [1, 7]: 138 ± 66.6 min
Cmax ([1]; male, Sprague-Dawley, plasma, po, 20 mg/kg, oral 20 mg/kg, vehicle 2: 10% DMSO + 10% Tween 80, read-out: C0 or Cmax): 33.2 ± 18.8 ng/mL
CL or CL/F [1, 8]: 74.91 ± 6.11 mL/min/kg
Vz or Vz/F [1, 8]: 8.75 ± 3.80 L/kg
t1/2 ([1]; IV injection 2 mg/kg in 5% DMSO, plasma, 2 mg/kg): 1.34 ± 0.51 h
Vz or Vz/F ([1]; oral 20 mg/kg, vehicle 1: 10% DMSO): 1906.08 ± 1841.14 L/kg
Vz or Vz/F ([1]; oral 20 mg/kg, vehicle 2: 10% DMSO + 10% Tween 80): 998.85 ± 401.04 L/kg
time to reach peak concentration (Cmax) ([1]; oral administration 20 mg/kg, both vehicles): ≤ 1.0 h
stability (observed vs theoretical concentration) ([2]; 0.1% ammonium hydroxide (pH = 10.5), A: immediately): 29.29 ± 1.26%
stability (observed vs theoretical concentration) ([2]; 0.1% ammonium hydroxide (pH = 10.5), B: after 24 h at room temperature): 0.09 ± 0.01%
stability (observed vs theoretical concentration) ([2]; 0.1% ammonium hydroxide (pH = 10.5), C: after 5 freeze-thaw cycles): 5.21 ± 0.32%
stability (observed vs theoretical concentration) ([2]; 0.1% ammonium hydroxide (pH = 10.5), D: after 10 days at −20 °C): 0.13 ± 0.08%
stability (observed vs theoretical concentration) ([2]; 0.1% formic acid (pH = 2.8), A: immediately): 66.56 ± 3.73%
stability (observed vs theoretical concentration) ([2]; 0.1% formic acid (pH = 2.8), B: after 24 h at room temperature): 0.16 ± 0.05%
stability (observed vs theoretical concentration) ([2]; 0.1% formic acid (pH = 2.8), C: after 5 freeze-thaw cycles): 48.25 ± 2.26%
stability (observed vs theoretical concentration) ([2]; 0.1% formic acid (pH = 2.8), D: after 10 days at −20 °C): 0.12 ± 0.07%
stability (observed vs theoretical concentration) ([2]; 0.35% HCl (pH = 1.2), A: immediately): 103.67 ± 0.60%
stability (observed vs theoretical concentration) ([2]; 0.35% HCl (pH = 1.2), B: after 24 h at room temperature): 104.42 ± 2.50%
stability (observed vs theoretical concentration) ([2]; 0.35% HCl (pH = 1.2), C: after 5 freeze-thaw cycles): 103.12 ± 2.19%
stability (observed vs theoretical concentration) ([2]; 0.35% HCl (pH = 1.2), D: after 10 days at −20 °C): 107.15 ± 0.69%
stability (observed vs theoretical concentration) ([2]; 1.0% formic acid (pH = 2.2), A: immediately): 97.66 ± 6.58%
stability (observed vs theoretical concentration) ([2]; 1.0% formic acid (pH = 2.2), B: after 24 h at room temperature): 100.05 ± 1.83%
stability (observed vs theoretical concentration) ([2]; 1.0% formic acid (pH = 2.2), C: after 5 freeze-thaw cycles): 101.86 ± 1.51%
stability (observed vs theoretical concentration) ([2]; 1.0% formic acid (pH = 2.2), D: after 10 days at −20 °C): 105.67 ± 0.59%
stability (observed vs theoretical concentration) ([2]; saline (pH = 5.5), A: immediately): 63.47 ± 2.32%
stability (observed vs theoretical concentration) ([2]; saline (pH = 5.5), B: after 24 h at room temperature): 0.13 ± 0.03%
stability (observed vs theoretical concentration) ([2]; saline (pH = 5.5), C: after 5 freeze-thaw cycles): 19.01 ± 1.61%
stability (observed vs theoretical concentration) ([2]; saline (pH = 5.5), D: after 10 days at −20 °C): 9.93 ± 1.76%
Percentage over Theoretical Concentration, Long-Term Stability ([3]; 2 ng/mL): 97.25 ± 4.73%
Percentage over Theoretical Concentration, Freeze/Thaw Stability ([3]; 2 ng/mL): 99.02 ± 3.61%
Percentage over Theoretical Concentration, Autosampler Stability ([3]; 2 ng/mL): 97.2 ± 4.98%
Percentage over Theoretical Concentration, Short-Term Stability ([3]; 2 ng/mL): 96.57 ± 2.66%
Percentage over Theoretical Concentration, Long-Term Stability ([3]; 80 ng/mL): 99.38 ± 0.49%
Percentage over Theoretical Concentration, Freeze/Thaw Stability ([3]; 80 ng/mL): 100.40 ± 0.20%
Percentage over Theoretical Concentration, Autosampler Stability ([3]; 80 ng/mL): 101.31 ± 2.00%
Percentage over Theoretical Concentration, Short-Term Stability ([3]; 80 ng/mL): 101.11 ± 1.95%
Percentage over Theoretical Concentration, Long-Term Stability ([3]; 160 ng/mL): 96.62 ± 1.63%
Percentage over Theoretical Concentration, Freeze/Thaw Stability ([3]; 160 ng/mL): 98.44 ± 0.58%
Percentage over Theoretical Concentration, Autosampler Stability ([3]; 160 ng/mL): 97.45 ± 0.31%
Percentage over Theoretical Concentration, Short-Term Stability ([3]; 160 ng/mL): 97.64 ± 2.18%
t1/2(β) [4]: 112 to 128 min
